This passage reports GI50 and IC50 results from patent US20230293535A1, “ERBB/BTK INHIBITORS” (Dizal (Jiangsu) Pharmaceutical Co., Ltd., priority 2018, published 2023).

What all share (format): cell-based
One assay deals with Ri-1 cells. Nature of the assay: BTK (wt) cell proliferation, Ri-1 (CellTiter-Glo, 72 h).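 Further: viable cells quantified as cellular ATP luminescence, proliferation normalized to a time-zero plate and the DMSO control, compounds tested across a dilution series.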 Conditions: Ri-1, 72 h, Ri-1 cells, 72 h, CellTiter-Glo; read-out: BTK WT Ri-1 GI50.
The subject of the next assay is DB cells. In words: BTK (wt) cell proliferation, DB (CellTiter-Glo, 72 h).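 Further: DB cells in 384-well plates given a dilution series of compound, viable cells read by ATP luminescence, growth expressed versus DMSO control after subtracting a time-zero plate reading.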 To be noted: Homo sapiens, DB, DB cells, CellTiter-Glo, read-out: Non-BCR activated DB GI50.
For a further assay, the system named is Ba/F3 EGFR NPH ins cells. Nature of the assay: Cell proliferation, Ba/F3 EGFR NPH ins (CellTiter-Glo, 72 h).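 Further: IL3-independent cells carrying constitutively phosphorylated EGFR, compound dilution series, viable cells quantified by ATP luminescence, growth relative to DMSO wells after subtracting pre-dosing (day 0) baseline.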 Conditions: Ba/F3 EGFR, 72 h, Ba/F3 EGFR NPH ins, 72 h proliferation; read-out: EGFR Exon20 NPH insertion GI50.
For the next assay, the system named is WT EGFR cell line A-431. In words: Cell proliferation, WT EGFR A431 (CellTiter-Glo, 72 h).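 Further: proliferation from a luminescent ATP viability signal, expressed as 100 × (treated minus time-zero plate) over (DMSO control minus time-zero plate), cells grown with 10% FBS.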 To be noted: Homo sapiens, A-431, 72 h, A431, 72 h proliferation; read-out: EGFR WT A431 GI50.
In assay [1] the test system is NCI-H1975 EGFR L858R/T790M cells. In words: Cell proliferation, NCI-H1975 EGFR L858R/T790M (CellTiter-Glo, 72 h).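 Further: viable cells quantified by luciferase-based ATP luminescence, proliferation expressed relative to DMSO-treated wells (100%) after subtracting a parallel plate read at the time of dosing.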 Conditions: Homo sapiens, NCI-H1975, 72 h, NCI-H1975, 72 h proliferation; read-out: EGFR L858R and T790M mutation GI50.
Another assay concerns the target T1, EGFR L858R&T790M (Homo sapiens, UniProt P00533, L858R/T790M).
T1 construct: host or cells: NCI-H1975
In words: EGFR L858R and T790M cellular phosphorylation inhibition in NCI-H1975 (MSD).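 Further: phosphorylated and total EGFR detected by electrochemiluminescence, cells exposed to compound in medium containing 1% FBS at 37 °C.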 To be noted: NCI-H1975 cells, 4 h compound, p-EGFR(Y1068)/total EGFR; read-out: EGFR L858R and T790M mutation IC50.

In assay [2] the target is T2, human EGFR exon 20 H773_V774insNPH (Homo sapiens, UniProt P00533, INS773NPH).
T2 construct: host or cells: Ba/F3
In words: EGFR Exon20 NPH insertion cellular phosphorylation inhibition (MSD pEGFR Y1068/total EGFR).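 Further: IL3-independent Ba/F3 cells with constitutively phosphorylated EGFR, compound exposure at 37 °C under 5% CO2, electrochemiluminescent MSD measurement of the p-EGFR to total EGFR ratio.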 Conditions: Ba/F3 EGFR NPH ins cells, 4 h compound, p-EGFR(Y1068)/total EGFR.

The subject of a further assay is Ba/F3 EGFR ASV ins cells. Nature of the assay: Cell proliferation, Ba/F3 EGFR ASV ins (CellTiter-Glo, 72 h).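 Further: IL3-independent Ba/F3 cells transduced with EGFR V769_D770insASV, cellular ATP luminescence after compound exposure, growth relative to DMSO control with the day-0 baseline reading subtracted.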 Conditions: Ba/F3 EGFR, 72 h, Ba/F3 EGFR ASV ins, 72 h proliferation; read-out: EGFR Exon20 ASV insertion GI50.
A further assay concerns the target T3, WT EGFR (Homo sapiens, UniProt P00533).
T3 construct: host or cells: A-431
In words: WT EGFR cellular phosphorylation inhibition in A-431 (hEGF stimulated, MSD).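 Further: electrochemiluminescence read-out of EGFR Tyr1068 phosphorylation expressed as ratio to total EGFR, cells kept in medium with 1% FBS, compounds tested as a concentration series.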 Conditions: A431 cells, 4 h compound, then 100 ng/ml hEGF 10 min.

Assay [3] addresses T4, human Her2 exon 20 insertion mutation YVMA (Homo sapiens, UniProt P04626, INS775YVMA).
T4 construct: expressed in transfected cells; host or cells: NIH-3T3, lentiviral transduction, puromycin selection
Nature of the assay: Her2 Exon 20 YVMA insertion cellular phosphorylation inhibition (MSD p-Her2 Y1248/total Her2).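 Further: lentivirally transduced NIH-3T3 cells in 1% FBS medium, electrochemiluminescent MSD read-out, graded compound concentrations at 37 °C.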 To be noted: Her2 YVMAins cells, 4 h compound.

The subject of a further assay is OCI-LY-10 cells. In words: BTK (wt) cell proliferation, OCI-LY-10 (CellTiter-Glo, 72 h).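 Further: viable cells quantified via cellular ATP luminescence, proliferation given as percent of DMSO control after subtracting a duplicate plate read at time of dosing.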 Conditions: Homo sapiens, OCI-Ly10, 72 h, OCI-LY-10 cells, 72 h, CellTiter-Glo; read-out: BTK WT OCI-LY-10 GI50.
Assay [4] has as its system Her2 exon 20 insertion YVMA transduced NIH-3T3 cell line. Nature of the assay: Cell proliferation, Her2 YVMAins NIH-3T3 (CellTiter-Glo, 72 h).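 Further: viable cells quantified by ATP luminescence, growth over a day-zero baseline plate expressed as percent of DMSO control growth, compound dilution series in 10% FBS medium.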 Conditions: Mus musculus, NIH3T3, 72 h, Her2 YVMAins cells, 72 h proliferation; read-out: Her2 Exon 20 YVMA insertion GI50.
In assay [5] the target is T5, human EGFR exon 20 V769_D770insASV (Homo sapiens, UniProt P00533, INS769ASV).
T5 construct: expressed in transfected cells; host or cells: Ba/F3 (DSMZ ACC-300), lentiviral transduction, puromycin selection, IL3 depletion
In words: EGFR Exon20 ASV insertion cellular phosphorylation inhibition (MSD pEGFR Y1068/total EGFR).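 Further: electrochemiluminescent readout on an MSD SECTOR Imager, IL3-independent transduced cells in medium with 1% FBS, compound concentration series at 37 °C and 5% CO2.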 To be noted: Ba/F3 EGFR ASV ins cells, 4 h compound, p-EGFR(Y1068)/total EGFR.

Another assay has as its system TMD-8 cells. Nature of the assay: BTK (wt) cell proliferation, TMD-8 (CellTiter-Glo, 72 h).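 Further: viable cells quantified by ATP-based luminescence, proliferation expressed as percent of DMSO control after subtracting a time-zero baseline plate read at dosing.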 To be noted: Homo sapiens, TMD8, 72 h, TMD-8 cells, 72 h, CellTiter-Glo; read-out: BTK WT TMD-8 GI50.

pIC50: −log10 of the molar value.

T2 sequence (P00533 with tags, fused parts or gaps INS773NPH): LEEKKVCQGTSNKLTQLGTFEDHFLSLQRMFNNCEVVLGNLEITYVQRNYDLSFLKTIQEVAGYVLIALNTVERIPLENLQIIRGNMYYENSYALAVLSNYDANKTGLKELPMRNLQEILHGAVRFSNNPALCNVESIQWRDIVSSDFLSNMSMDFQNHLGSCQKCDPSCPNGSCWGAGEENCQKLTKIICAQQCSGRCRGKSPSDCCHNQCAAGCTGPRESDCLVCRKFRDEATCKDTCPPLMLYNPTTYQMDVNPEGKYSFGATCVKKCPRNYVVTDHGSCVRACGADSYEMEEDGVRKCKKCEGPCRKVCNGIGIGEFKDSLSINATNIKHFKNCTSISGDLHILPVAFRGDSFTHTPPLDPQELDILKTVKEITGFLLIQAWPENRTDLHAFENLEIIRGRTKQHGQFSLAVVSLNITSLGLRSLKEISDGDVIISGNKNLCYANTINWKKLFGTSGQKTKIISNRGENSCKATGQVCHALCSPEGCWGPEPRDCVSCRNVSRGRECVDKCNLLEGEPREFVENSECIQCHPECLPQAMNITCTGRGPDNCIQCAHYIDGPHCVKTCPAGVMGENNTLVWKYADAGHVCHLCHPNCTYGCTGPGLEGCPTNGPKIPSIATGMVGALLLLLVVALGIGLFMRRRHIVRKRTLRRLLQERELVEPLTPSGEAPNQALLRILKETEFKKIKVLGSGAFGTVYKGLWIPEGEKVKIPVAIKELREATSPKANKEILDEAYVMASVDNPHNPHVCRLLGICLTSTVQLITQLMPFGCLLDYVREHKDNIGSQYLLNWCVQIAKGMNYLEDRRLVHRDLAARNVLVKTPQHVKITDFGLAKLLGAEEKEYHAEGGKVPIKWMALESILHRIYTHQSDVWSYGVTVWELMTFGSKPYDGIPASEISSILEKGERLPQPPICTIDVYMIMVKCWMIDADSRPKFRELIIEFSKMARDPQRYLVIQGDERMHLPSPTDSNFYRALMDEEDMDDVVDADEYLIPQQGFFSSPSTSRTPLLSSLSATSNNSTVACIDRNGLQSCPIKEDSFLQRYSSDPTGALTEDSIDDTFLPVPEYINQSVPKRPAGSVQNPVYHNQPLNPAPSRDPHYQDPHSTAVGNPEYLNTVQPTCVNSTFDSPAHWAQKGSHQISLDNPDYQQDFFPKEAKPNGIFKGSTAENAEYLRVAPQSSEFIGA
T3 sequence (P00533 25-1210): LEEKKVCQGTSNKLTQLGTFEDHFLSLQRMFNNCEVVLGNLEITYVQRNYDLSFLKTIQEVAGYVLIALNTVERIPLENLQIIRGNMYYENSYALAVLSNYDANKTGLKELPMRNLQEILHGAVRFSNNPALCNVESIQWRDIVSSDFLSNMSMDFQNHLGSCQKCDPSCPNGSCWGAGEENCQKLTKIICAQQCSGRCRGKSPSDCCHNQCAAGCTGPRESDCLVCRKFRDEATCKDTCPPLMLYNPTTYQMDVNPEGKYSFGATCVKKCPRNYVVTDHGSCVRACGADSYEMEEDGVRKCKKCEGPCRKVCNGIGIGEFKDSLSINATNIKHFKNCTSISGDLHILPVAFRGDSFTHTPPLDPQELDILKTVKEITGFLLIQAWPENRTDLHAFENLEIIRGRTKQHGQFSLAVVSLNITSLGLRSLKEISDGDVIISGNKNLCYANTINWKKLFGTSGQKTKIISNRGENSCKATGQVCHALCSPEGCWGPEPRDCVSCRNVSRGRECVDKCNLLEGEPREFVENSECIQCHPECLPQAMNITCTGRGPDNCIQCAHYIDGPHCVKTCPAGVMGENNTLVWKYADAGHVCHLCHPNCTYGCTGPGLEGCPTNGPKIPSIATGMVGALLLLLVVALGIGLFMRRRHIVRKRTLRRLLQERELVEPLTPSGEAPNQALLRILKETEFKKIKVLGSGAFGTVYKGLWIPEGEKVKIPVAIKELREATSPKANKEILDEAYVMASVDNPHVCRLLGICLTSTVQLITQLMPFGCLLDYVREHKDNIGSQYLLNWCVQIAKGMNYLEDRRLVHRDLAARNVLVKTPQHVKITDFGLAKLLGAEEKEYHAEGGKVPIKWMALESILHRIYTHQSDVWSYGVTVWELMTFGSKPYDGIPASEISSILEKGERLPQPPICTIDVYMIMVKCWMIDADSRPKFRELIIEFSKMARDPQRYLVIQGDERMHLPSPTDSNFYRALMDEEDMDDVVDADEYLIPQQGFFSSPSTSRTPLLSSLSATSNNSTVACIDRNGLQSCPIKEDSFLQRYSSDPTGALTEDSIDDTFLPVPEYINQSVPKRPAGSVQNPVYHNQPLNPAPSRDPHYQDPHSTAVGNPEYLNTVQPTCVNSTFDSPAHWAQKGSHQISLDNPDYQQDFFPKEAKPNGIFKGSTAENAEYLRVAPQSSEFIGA
T5 sequence (P00533 with tags, fused parts or gaps INS769ASV): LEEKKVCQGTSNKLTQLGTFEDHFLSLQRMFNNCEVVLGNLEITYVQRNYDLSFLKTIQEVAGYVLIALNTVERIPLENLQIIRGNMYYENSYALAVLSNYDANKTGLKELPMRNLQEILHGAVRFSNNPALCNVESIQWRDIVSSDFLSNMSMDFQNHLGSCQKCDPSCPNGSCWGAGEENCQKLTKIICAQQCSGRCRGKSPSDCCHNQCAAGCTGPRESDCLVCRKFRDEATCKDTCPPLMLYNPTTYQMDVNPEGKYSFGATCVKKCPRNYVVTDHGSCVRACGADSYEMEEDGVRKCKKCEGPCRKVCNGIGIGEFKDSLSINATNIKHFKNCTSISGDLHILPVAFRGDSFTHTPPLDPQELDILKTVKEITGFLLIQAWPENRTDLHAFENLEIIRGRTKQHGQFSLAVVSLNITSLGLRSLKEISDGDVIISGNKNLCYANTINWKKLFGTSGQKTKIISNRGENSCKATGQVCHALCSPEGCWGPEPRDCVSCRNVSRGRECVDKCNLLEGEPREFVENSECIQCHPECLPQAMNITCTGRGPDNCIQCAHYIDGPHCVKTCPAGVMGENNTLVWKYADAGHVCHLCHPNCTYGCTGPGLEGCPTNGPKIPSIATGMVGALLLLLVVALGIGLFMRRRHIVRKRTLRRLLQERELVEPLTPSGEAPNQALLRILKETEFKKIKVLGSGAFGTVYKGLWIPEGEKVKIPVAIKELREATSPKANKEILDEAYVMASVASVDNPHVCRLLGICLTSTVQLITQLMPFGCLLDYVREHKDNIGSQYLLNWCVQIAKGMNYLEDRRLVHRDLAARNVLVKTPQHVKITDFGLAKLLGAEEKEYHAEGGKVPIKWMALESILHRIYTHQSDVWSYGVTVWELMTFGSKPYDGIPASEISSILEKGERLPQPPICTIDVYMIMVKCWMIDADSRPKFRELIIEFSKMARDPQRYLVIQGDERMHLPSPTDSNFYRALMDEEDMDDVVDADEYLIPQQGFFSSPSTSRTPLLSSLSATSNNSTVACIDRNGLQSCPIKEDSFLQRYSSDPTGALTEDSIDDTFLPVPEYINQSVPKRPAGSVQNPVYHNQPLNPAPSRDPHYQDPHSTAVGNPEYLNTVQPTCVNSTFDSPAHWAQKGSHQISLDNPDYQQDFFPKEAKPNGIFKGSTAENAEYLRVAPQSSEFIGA
T1 sequence (P00533 25-1210 T790M/L858R): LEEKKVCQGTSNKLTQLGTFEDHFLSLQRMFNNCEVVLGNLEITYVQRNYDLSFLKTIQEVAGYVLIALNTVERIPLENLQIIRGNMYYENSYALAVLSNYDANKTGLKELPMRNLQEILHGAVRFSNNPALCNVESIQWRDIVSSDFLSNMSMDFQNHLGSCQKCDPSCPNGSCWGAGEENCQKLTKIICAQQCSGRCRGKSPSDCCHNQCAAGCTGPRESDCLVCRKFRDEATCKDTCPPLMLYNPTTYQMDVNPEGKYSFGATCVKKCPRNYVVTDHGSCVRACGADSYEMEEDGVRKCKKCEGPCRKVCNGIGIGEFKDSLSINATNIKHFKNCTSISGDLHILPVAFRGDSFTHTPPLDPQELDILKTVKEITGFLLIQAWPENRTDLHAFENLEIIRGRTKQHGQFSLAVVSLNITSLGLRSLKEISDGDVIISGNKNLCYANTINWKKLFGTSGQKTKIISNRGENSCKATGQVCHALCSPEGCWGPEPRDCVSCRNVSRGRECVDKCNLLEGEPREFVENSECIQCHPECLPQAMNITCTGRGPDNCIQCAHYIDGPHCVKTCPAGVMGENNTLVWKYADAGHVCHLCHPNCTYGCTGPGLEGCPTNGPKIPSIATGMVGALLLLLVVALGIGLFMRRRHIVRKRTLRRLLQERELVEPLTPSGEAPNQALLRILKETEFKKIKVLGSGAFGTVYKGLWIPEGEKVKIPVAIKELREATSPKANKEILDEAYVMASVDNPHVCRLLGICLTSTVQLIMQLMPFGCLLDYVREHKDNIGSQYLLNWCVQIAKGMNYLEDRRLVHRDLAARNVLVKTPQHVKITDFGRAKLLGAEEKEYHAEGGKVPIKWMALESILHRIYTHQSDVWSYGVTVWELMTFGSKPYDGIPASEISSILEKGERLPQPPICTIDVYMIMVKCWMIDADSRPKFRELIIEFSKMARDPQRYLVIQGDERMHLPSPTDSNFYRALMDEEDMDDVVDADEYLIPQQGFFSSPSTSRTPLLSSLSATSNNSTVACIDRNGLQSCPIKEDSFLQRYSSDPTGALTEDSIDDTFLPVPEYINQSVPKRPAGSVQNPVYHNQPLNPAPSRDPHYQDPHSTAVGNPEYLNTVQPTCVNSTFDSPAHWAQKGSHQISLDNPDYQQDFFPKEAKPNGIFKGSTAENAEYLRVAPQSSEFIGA
Method for DB cells: (§1) OCI-LY-10 at 3,750 cells/well, TMD-8 and Ri-1 at 2,000 cells/well, and DB at 1,250 cells/well, respectively, were sorted into 384-well plates in RPMI1640 medium with 10% FBS. After overnight incubation, all cells were incubated with compound at a series of concentrations. Meanwhile, a duplicated plate of each cell line was prepared for measuring G0 value. The dosed plates were further incubated for 72 hours and the number of viable cells was measured by CellTiter-Glo® Luminescent Cell Viability Assay (Promega), a luminescent method for determining the number of viable cells through measurement of cellular ATP concentration using Envision plate reader (PerkinElmer). The percentage of proliferation was calculated as: % Proliferation = 100 × (G3 value of sample well - G0 value)/(G3 value of DMSO control - G0 value).
Method for Ri-1 cells: as §1

As to `C=CC(=O)Nc1cc(Nc2ncnc(Nc3cc(Cl)c(Cl)cc3C(C)(C)O)n2)c(OC)cc1N(C)CCN(C)C` [Compound 15, N-(5-(4-(4,5-dichloro-2-(2-hydroxypropan-2-yl)phenylamino)-1,3,5-triazin-2-ylamino)-2-((2-(dimethylamino)ethyl)(methyl)amino)-4-methoxyphenyl)a crylamide], the GI50 with Ri-1 cells amounted to 6.68 nM; in the assay on DB cells, 1340 nM; with Ba/F3 EGFR NPH ins cells it was 32.9 nM; with WT EGFR cell line A-431, 7.9 nM; in [1], 7.4 nM; in the assay with Ba/F3 EGFR ASV ins cells, 21.1 nM. Besides, the GI50 in the assay with OCI-LY-10 cells was 4.95 nM; in [4], 32.7 nM; in the assay on TMD-8 cells, 2.44 nM. Besides, the pIC50 at EGFR L858R&T790M is 9.40; in [2], 7.82; on WT EGFR, 8.09; in assay [3], 8.42; in assay [5], 8.12.

For the compound `C=CC(=O)Nc1cc(Nc2ncnc(Nc3cc(F)c(Cl)c(F)c3C(C)(C)O)n2)c(OC)cc1N(C)CCN(C)C` [Compound 16, N-(5-(4-(4-chloro-3,5-difluoro-2-(2-hydroxypropan-2-yl)phenylamino)-1,3,5-triazin-2-ylamino)-2-((2-(dimethylamino)ethyl)(methyl)amino)-4-methoxyphenyl)acrylamide], the GI50 is 334 nM in the assay with Ri-1 cells; above 3000 nM in the assay with DB cells; 81.3 nM in the assay with Ba/F3 EGFR NPH ins cells; 52.6 nM in the assay with WT EGFR cell line A-431; 33.4 nM in assay [1]; 114 nM with Ba/F3 EGFR ASV ins cells. Moreover, the GI50 amounted to 250 nM with OCI-LY-10 cells, 73.4 nM in assay [4] and 118 nM in the assay on TMD-8 cells. In addition, the pIC50 was 9.05 on EGFR L858R&T790M; 7.44 in [2]; 7.32 against WT EGFR; 7.78 in assay [3]; 7.45 in [5].

For the compound `C=CC(=O)Nc1cc(Nc2ncnc(Nc3cc(F)c(F)cc3C(C)(C)O)n2)c(OC)cc1N1CC[C@@H]2CN(C)C[C@@H]21` [Compound 17, N-(5-(4-(4,5-difluoro-2-(2-hydroxypropan-2-yl)phenylamino)-1,3,5-triazin-2-ylamino)-4-methoxy-2-((3aR,6aR)-5-methylhexahydropyrrolo[3,4-b]pyrrol-1(2H)-yl)phenyl) acrylamide], the GI50 is 28 nM in the assay on Ri-1 cells; above 3000 nM in the assay on DB cells; 25 nM in the assay on Ba/F3 EGFR NPH ins cells; 13.2 nM in the assay with WT EGFR cell line A-431; 3.7 nM in assay [1]; 19.6 nM in the assay with Ba/F3 EGFR ASV ins cells. In addition, the GI50 in the assay with OCI-LY-10 cells amounted to 41.5 nM; in assay [4], 37.7 nM; in the assay with TMD-8 cells, 53.7 nM. The pIC50 on EGFR L858R&T790M is 9.52; in assay [2] it was 7.89; at WT EGFR it was 7.87; in assay [3], 8.21; in assay [5] it was 8.11.

Turning to `C=CC(=O)Nc1cc(Nc2ncnc(Nc3cc(F)c(F)cc3C(C)(C)O)n2)c(OC)cc1N(C)CCN1CCCC1` [Compound 18], the GI50 in the assay on Ri-1 cells is 446 nM; in the assay with DB cells, above 3000 nM; with Ba/F3 EGFR NPH ins cells, 93.6 nM; in the assay on WT EGFR cell line A-431 it was 42.8 nM; in assay [1], 10.9 nM; with Ba/F3 EGFR ASV ins cells, 91.3 nM. In addition, the GI50 with OCI-LY-10 cells was 276 nM; in [4] it was 136 nM; in the assay with TMD-8 cells, 81.7 nM. Also, the pIC50 on EGFR L858R&T790M is 8.96; in assay [2], 7.21; at WT EGFR it was 7.23; in assay [3], 7.66; in assay [5], 7.37.

As for `C=CC(=O)Nc1cc(Nc2ncnc(Nc3cc(F)c(F)cc3C(C)(C)O)n2)c(OC)cc1N1CC[C@@H]1CN(C)C` [Compound 19, (R)-N-(5-(4-(4,5-difluoro-2-(2-hydroxypropan-2-yl)phenylamino)-1,3,5-triazin-2-ylamino)-2-(2-((dimethylamino)methyl)azetidin-1-yl)-4-methoxyphenyl)acrylamide], the GI50 in the assay on Ri-1 cells was 133 nM; in the assay with DB cells, above 3000 nM; in the assay on Ba/F3 EGFR NPH ins cells, 80 nM; in the assay with WT EGFR cell line A-431, 23.1 nM; in assay [1], 9.5 nM; in the assay on Ba/F3 EGFR ASV ins cells it was 80.9 nM. Also, the GI50 with OCI-LY-10 cells worked out at 10.8 nM; in assay [4] it was 163 nM; in the assay on TMD-8 cells it was 13 nM. The pIC50 is 9.05 on EGFR L858R&T790M; 7.33 in assay [2]; 7.53 at WT EGFR; 7.67 in [3]; 7.53 in assay [5].

Turning to `C=CC(=O)Nc1cc(Nc2ncnc(Nc3cc(F)c(F)cc3C(C)(C)O)n2)c(OC)cc1N(C)C[C@H]1CCCN1C` [Compound 20, (R)-N-(5-(4-(4,5-difluoro-2-(2-hydroxypropan-2-yl)phenylamino)-1,3,5-triazin-2-ylamino)-4-methoxy-2-(methyl((1-methylpyrrolidin-2-yl)methyl)amino)phenyl)acrylamide], the GI50 is 56.2 nM with Ri-1 cells; above 3000 nM in the assay with DB cells; 51.5 nM in the assay on Ba/F3 EGFR NPH ins cells; 16.5 nM with WT EGFR cell line A-431; 7.7 nM in assay [1]; 30.8 nM in the assay with Ba/F3 EGFR ASV ins cells. The results for the GI50 (in the assay with OCI-LY-10 cells; in [4]; in the assay with TMD-8 cells) were 99.8 nM, 68.1 nM and 103 nM, respectively. Moreover, the pIC50 is 9.30 at EGFR L858R&T790M; 7.60 in [2]; 7.57 on WT EGFR; 7.95 in assay [3]; 8.03 in assay [5].

For the compound `C=CC(=O)Nc1cc(Nc2ncnc(Nc3cc(F)c(F)cc3C(C)(C)O)n2)c(OC)cc1N1CCC[C@@H]1CN(C)C` [Compound 21, (R)-N-(5-(4-(4,5-difluoro-2-(2-hydroxypropan-2-yl)phenylamino)-1,3,5-triazin-2-ylamino)-2-(2-((dimethylamino)methyl)pyrrolidin-1-yl)-4-methoxyphenyl)acrylamide], the GI50 in the assay with Ri-1 cells is 11.2 nM; in the assay on DB cells, above 3000 nM; in the assay on Ba/F3 EGFR NPH ins cells it was 11.2 nM; in the assay with WT EGFR cell line A-431, 4.1 nM; in assay [1], 2.5 nM; in the assay on Ba/F3 EGFR ASV ins cells it was 8.2 nM. Further, the results for the GI50 (with OCI-LY-10 cells; in assay [4]; with TMD-8 cells) were 9.7 nM, 13.2 nM and 19.2 nM, respectively. The pIC50 on EGFR L858R&T790M is 9.70; in assay [2], 8.17; against WT EGFR, 8.29; in [3], 8.77; in assay [5] it was 8.64.

As for `C=CC(=O)Nc1cc(Nc2ncnc(Nc3cc(Cl)c(F)cc3C(C)(C)O)n2)c(OC)cc1N(C)CCN1CCCCC1` [Compound 26, N-(5-(4-(5-chloro-4-fluoro-2-(2-hydroxypropan-2-yl)phenylamino)-1,3,5-triazin-2-ylamino)-4-methoxy-2-(methyl(2-(piperidin-1-yl)ethyl)amino)phenyl)acrylamide], the GI50 in the assay on Ri-1 cells is 50.5 nM; with DB cells, above 3000 nM; in the assay on Ba/F3 EGFR NPH ins cells, 123 nM; with WT EGFR cell line A-431, 57.8 nM; in [1] it was 32.4 nM; with Ba/F3 EGFR ASV ins cells it was 99.5 nM. The GI50 with OCI-LY-10 cells was 45.3 nM; in [4], 253 nM; in the assay on TMD-8 cells, 12.6 nM. The pIC50 was 8.89 on EGFR L858R&T790M; 7.36 in assay [2]; 6.99 on WT EGFR; 8.02 in [3]; 7.39 in assay [5].
